Test results published in patent publication US4000310A, “Pharmaceutical compositions containing 6-methyl-3,4-diphenyl-3,4,5,6-tetrahydro-2-pyrone or derivatives thereof” (Union Chimique Continentale-U.C.C, priority 1974, dated 1976).

Assays:
rats [1] = experiment: Test for antireserpine action, rats; type: in vivo, rat (male, Wistar Af stock); settings: rats, 8, 16, 32 and 64 mg/kg oral; reserpine 2.5 mg/kg i.p. 4 hours before
Method: (§1) All the experiments described below were carried out using male rats weighing from 170 to 220 g (Wistar Af stock) and male mice weighing from 18 to 23 g (Swiss NMRI stock).

rat [2] = experiment: Effects of barbiturate hypnotics, rat; type: in vivo, rat (male, Wistar Af stock); settings: rat, 16, 32 or 64 mg/kg oral, with pentabarbitone or barbitone sodium
Method: as §1

rats [3] = experiment: Test of anticataleptic action (prochlorperazine catalepsy); type: in vivo, rat (male, Wistar Af stock); settings: 16 or 64 mg/kg i.p. or oral, prochlorperazine 8 mg/kg i.p., homolateral paws, Buddha or elevator test
Method: as §1

animals = experiment: animal or person; type: in vivo, rat and mouse
Method: an increase in the activity and alertness of animals without abnormal behaviour and particularly stereotyped movements ever appearing. Increased activity and alertness were found in both the rat and the mouse by observing the animals, measuring their motor activity and measuring their exploration of a board containing holes and the shortening of the reaction time of mice on a hot-plate. The increase is marked (according to the tests) from doses of 16 to 32 mg/kg given orally; it takes place rapidly after administration and lasts about 2 hours. These doses are far from the toxic level (ratio LD50/ED 50 approximately 20/1 in the mouse and over 10/1 in the rat);

rat [4] = experiment: Acute toxicity in the rat; type: in vivo
Method: as §1
(§2) All the experiments took place in a laboratory with a constant temperature (22° ± 1° C).
(§3) All the experiments were carried out blind (without the experimenter knowing, at the time of the tests, which animals had received the substance presumed active).
(§4) Unless otherwise stated, 10 animals were always used per point.
In the rat, with either oral or intraperitoneal administration, the LD50 of 6-methyl 3,4-diphenyl-3,4,5,6-tetrahydro 2-pyrone was over 300 mg/kg.

rat [5] = experiment: Observation of the animals, rat; type: in vivo, rat (male, Wistar Af stock)
Method: as §1, §2, §3, §4

mouse = experiment: Interaction with electric shocks; type: in vivo, mouse (male, Swiss NMRI stock); settings: mouse, 16, 32, 64 or 128 mg/kg oral 60 min before electric shock
Method: as §1

monoamine oxidase = experiment: Monoamine oxidase inhibition (tryptamine test); type: in vivo, rat (male, Wistar Af stock); settings: rat, 64 mg/kg i.p.; tryptamine 3 mg/kg i.v.
Method: as §1
The dose of tryptamine given was insufficient to induce convulsions (3 mg/kg by intravenous injection).

mice = experiment: Test for antioxotremorine action; type: in vivo, mouse (male, Swiss NMRI stock); settings: mice, 8, 16, 32 or 64 mg/kg i.p. or oral; oxotremorine 0.5 mg/kg i.p.
Method: as §1
In mice which had been dosed intraperitoneally or orally with 8, 16, 32 or 64 mg/kg of MDTP, the effects of oxotremorine (0.5 mg/kg given intraperitoneally) were unchanged, as far as hypothermia, tremors, tears, hypersalivation and defecation were concerned.

## CC1CC(c2ccccc2)C(c2ccccc2)C(=O)O1 (stereo not shown) [MDTP, 6-methyl-3,4-diphenyl-3,4,5,6-tetrahydro-2-pyrone]
Rats [1]
  change in reserpine-induced hypothermia or palpebral ptosis: did not produce any change in the hypothermia or palpebral ptosis
Rat [2]
  change in time to fall asleep and sleeping period: did not produce any change in the time taken to fall asleep or in the sleeping period
Rats [3]
  change in cataleptic state: did not produce any change in the cataleptic state
animals; in vivo
  signs of sympathetic excitation, sleep preventing action: does not give rise to any signs of sympathetic excitation, any sleep preventing action
  sleep inhibiting effect: does not have any sleep inhibiting effect
animals; oral, rat and mouse
  duration of increase in activity and alertness: about 2 hours
animals; po, read-out: doses from which increase in activity and alertness is marked
  minimal effective dose: 16 to 32 mg/kg
Rat [4]
  ratio LD50/ED 50: over 10/1
Rat [5]
  sexual behaviour: An increase in sexual behaviour
Rat [5]; doses below toxic level
  diameter of the pupils, rectal temperature: no change in diameter of the pupils or the rectal temperature
  motor incoordination, abnormal or stereotyped movements: not accompanied by motor incoordination or by abnormal or stereotyped movements
Rat [5]; doses very close to lethal level
  hyperthermia: moderate hyperthermia
Rat [5]; in vivo
  toxic signs: tremors, hyperreactivity to very intense stimuli, interaggressiveness and convulsive phenomena with the rear paws stretched
Rat [5]; oral or intraperitoneal, from 16 mg/kg, below toxic level
  excitation on observation: slight excitation is observed with increased reaction to touching or to sound stimuli
Rat [5]; oral or intraperitoneal, read-out: dose from which slight excitation is observed
  minimal effective dose: 16 mg/kg
mouse
  duration or form of convulsive attacks: did not affect either the duration or the form of the convulsive attacks
  mortality after the attack: did not lead to any increase in mortality after the attack
Monoamine oxidase
  effects of tryptamine (inhibiting effect on monoamine oxidase): did not increase the effects of tryptamine
mice
  effects of oxotremorine (hypothermia, tremors, tears, hypersalivation, defecation): unchanged
